# Results as given in patent US5026694A, “Platinum complexes with one radiosensitizing ligand” (priority 1989, dated 1991).
# Where two headings read alike, the source gives them in different places.
# How the values were obtained:
# [1] = tested on: Chinese hamster ovary (CHO) cells; assay: Toxicity in hypoxic and aerated CHO cells (plating efficiency/survival); format: cell-based; set-up: plating efficiency / effect on plating efficiency: dose or concentration left out as unconfirmed; settings: for order of toxicity of free ligand: free ligands; for approximate order of hypoxic toxicity of platinum complexes: hypoxia; for toxicity compared with the compounds of the invention: 100 mM/dm^3 experiments
# Protocol: The toxicity of the invention compounds with respect to Chinese hamster ovary (CHO) cells was compared in air and in nitrogen induced hypoxia as described by Moore, B. A., et al, Radiation Research (1976) 67:459-478. The radiosensitizing ligands, or cis or transdichlorodiamine platinum II (DDP) or the . bisubstituted platinum complexes, PtCl2 (L)2, were used as controls.
# The cells were carried in MEM a medium with 10% fetal calf serum, and plating efficiencies were determined on the seventh day after plating.
# In similar experiments at 100 mM/dm^3, MISO and trans-[PtCl2 (miso)2 ] show no toxicity. Survival rates for trans-DDP and monoammine were 0.2 and 0.1 respectively.
# Using 100 mM levels, mono-6NQ caused plating efficiency to drop to 0 after an hour, while 6NQ had no effect after 3 hours.
# [2] = tested on: CHO cells; assay: Radiosensitization of CHO cells (enhancement ratio); format: cell-based, Chinese hamster; settings: for ER: Table 1; for radiosensitization, relative effectiveness: cis configuration, various concentrations, FIG. 2
# Protocol: Radiosensitization of CHO cells was determined as described by Moore, B. A., et al, sucra, at 4° C., except that the cells were incubated with complex for 1 hr at 37° C. to allow binding to DNA prior to radiation. A Picker X-ray source (250 kVp, 1.7 mm Cu) was used. As with the toxicity studies, cells were carried, irradiated, and plated in MEM a medium with 10% fetal calf serum, and plating efficiencies were determined on the seventh day after plating. Enhancement ratios (ER) were calculated from the doses required to reduce survival to 1%.
# [3] = tested on: cells; settings: cited from earlier work
# [4] = tested on: tumors; settings: cited from earlier work
# [5] = tested on: L1210 cells, cDDP sensitive line; assay: Toxicity in cisDDP-sensitive L1210 cells; format: cell-based; settings: read-out: ID50 (the source's name)
# Text: (§1) Patients become resistant to cisplatin (cisDDP) and to many related drugs.
# [6] = tested on: L1210 cells, cDDP resistant line; assay: Toxicity in cisDDP-resistant L1210 cells (cross-resistance); format: cell-based; settings: for Ratio (ID50 cDDP resistant/cDDP sensitive): L1210 cells
# Text: as §1
# [7] = tested on: plasmid pSV2-gpt DNA; assay: Binding to DNA by inhibition of restriction enzyme (BamHI) cleavage of plasmid DNA; format: biochemical; set-up: inhibition of BamHI cleavage / inhibition of cleavage with BamHI: unit of the concentration uncertain; settings: for binding to DNA, relative: all concentrations, FIG. 8; for inhibition of cleavage with BamHI: FIG. 3
# Protocol: The ability of the invention compounds to bind DNA was tested using an assay which is based on inhibition of the ability of restriction enzymes to cleave the complexed DNA. The substrate in the assay was the plasmid pSV2-gpt (Mulligan, R., et al Science (1980) 209:1422-1427). After growth in E. coli. this 5.2 kb plasmid was extracted and linearized using PvuII. Cleavage of the extracted linearized segment by BamHI or EcoRI results in two fragments per enzyme. Inhibition of this cleavage by test compounds provides an assay method for binding of the test compounds.
# In the assay, DNA (20 mg/ml) in 100 mM Tris-HCl, 1 mM EDTA, pH 8, was treated with the test compounds at approximately 100 mM for 1 hr at 37° C. Unbound drug was then removed using a G-50 Sephadex spin column (Pharmacia).
# To 30 mM of the treated DNA, 23.5 ml of a buffer solution containing 0.33 M Tris-acetate, pH 7.9, 0.66 M potassium acetate, 0.10 M dithiothreitol, and 1 mg/ml BSA, along with 10 units of enzyme, were added. Enzyme activity was stopped using 1 ml 0.5 M EDTA after 30 min at 37° C. Tracking 0.25% bromophenol blue, 0.25% xylene cyanol in 30% glycerol water) was added, and 10 ml of the resulting solution loaded onto a 1% agarose gel made with E buffer (0.04 M Tris, 5 mM sodium acetate; 1 mM EDTA, pH 7.8) and subjected to horizontal electrophoresis. The slab gel was stained with aqueous ethidium bromide solution (1 ng/ml) and photographed under UV light.
# Inhibition of the restriction enzyme cleavage was assessed qualitatively by noting the relative proportion of bands, or quantitatively by analyzing densitometric scans of the negatives of the recorded pictures.
# [8] = tested on: KHT sarcoma; assay: Potentiation of cytotoxicity in vivo by hydralazine, KHT sarcoma model
# [9] = tested on: DNA of CHO cells; assay: Platinum bound to DNA extracted from whole CHO cells, atomic absorption; format: cell-based, Chinese hamster; set-up: dose or concentration left out as unconfirmed; settings: 1-2 hr exposure
# Text: Though the results of this assay were erratic they establish that the Pt complexes cross cell membranes and bind to DNA in mammalian cells.
# [10] = 100 mM/dm^3, cis configuration or ligand alone, dose to reduce survival to 1%
# [11] = FIG. 7, cis-mono-4NI and cis-mono-5NI
smiles,measurement,setting,value
O=[N+]([O-])c1c[nH]cn1 [4-nitroimidazole],order of toxicity of free ligand,[1],4-nitroimidazole f MISO f ANT f METRO
same,enhancement ratio (ER),[2]; [10],1.10
"O=[N+]([O-])c1ccc2ncccc2c1 [6NQ, 6-nitroquinoline]",effect on plating efficiency,[1]; after 3 hours,no effect
"Nc1ncc([N+](=O)[O-])s1 [ANT, 2-amino-5-nitrothiazole]",order of toxicity of free ligand,[1],4-nitroimidazole f MISO f ANT f METRO
same,enhancement ratio (ER),[2]; [10],1.25
"Cc1ncc([N+](=O)[O-])n1CCO [METRO, 1,2-hydroxyethyl-2-methyl-5-nitroimidazole]",order of toxicity of free ligand,[1],4-nitroimidazole f MISO f ANT f METRO
same,sensitizing cells to radiation treatment in clinical trials,[3],beneficial effects in sensitizing cells to radiation treatment
COCC(O)Cn1ccnc1[N+](=O)[O-] (centres unmarked) [MISO],toxicity,[1]; 100 mM/dm^3,no toxicity
same,order of toxicity of free ligand,[1],4-nitroimidazole f MISO f ANT f METRO
same,sensitizing cells to radiation treatment in clinical trials,[3],beneficial effects in sensitizing cells to radiation treatment
same,ER,[2]; 100 mmol/dm^3,1.3
same,ER,[2]; 250 mmol/dm^3,1.4
same,sensitization in oxygen,[2],no sensitization
O=[N+]([O-])c1nccn1CC(O)CN1CC1 (centres unmarked) [RSU-1069],side effects,[4]; chemotherapy,high incidence of side effects
same,amount of RSU-1069 required for effectiveness with 5-hydroxytryptamine or hydralazine,[4]; coadministration of 5-hydroxytryptamine or hydralazine,can be reduced by administration of 5-hydroxytryptamine or hydralazine
same,enhancement of effect of RSU-1069 by hydralazine,"[4]; hydralazine 5 mg/kg or 30 mg/kg, RSU-1069 0.1 mg/g IP, within three hours",enhance the effect of RSU-1069
O=C(Cn1ccnc1[N+](=O)[O-])NCCO [SR-2508],sensitizing cells to radiation treatment in clinical trials,[3],beneficial effects in sensitizing cells to radiation treatment
Cc1n(CCO)c([N+](=O)[O-])c[n+]1[Pt-2]([NH3+])([Cl])[Cl] [cis mono METRO],IC50,[5],4.4 mM
same,Ratio (ID50 cDDP resistant/cDDP sensitive),[6],5
"COCC(O)Cn1cc[n+]([Pt-2]([NH3+])([Cl])[Cl])c1[N+](=O)[O-] (stereo not drawn) [cis-mono-MISO, PtCl2 (NH3) (misonidazole)]",toxicity in hypoxia versus in air,"[1]; 100 mM/dm^3, aerobic and hypoxic cells, FIG. 1",toxicity is greater in hypoxia than in air
same,toxicity compared with MISO alone and cisDDP,"[1]; complex 100 mM/dm^3, cis-DDP at 10 mM/dm^3","more toxic than MISO alone, although less toxic than cisDDP"
same,IC50,[5]; listed as cis mono MISO,8.5 mM
same,ER,[2]; 100 mmol/dm^3,1.25
same,sensitization in oxygen,[2],no sensitization
"N.O=[N+]([O-])c1c[nH]cn1.[Cl][Pt][Cl] [mono-4NI, PtCl2 (ammine)(4-nitroimidazole)]",approximate order of hypoxic toxicity of platinum complexes,[1],cis-DDP ff trans-mono-MISO f monoammine Z cis-mono-MISO f trans-DDP f mono-METRO Z mono-NI f mono-ANT
same,enhancement ratio (ER),[2]; [10],1.16
same,enhancement ratio (ER),[2]; [11],1.16
same,"radiosensitization, relative effectiveness",[2],somewhat more effective than mono-ANT
same,"binding to DNA, relative",[7],"neither bound as well, however, as cis-DDP"
"N.O=[N+]([O-])c1cnc[nH]1.[Cl][Pt][Cl] [mono-5NI, PtCl2 (ammine)(5-nitroimidazole)]",enhancement ratio (ER),[2]; [11],1.28
same,"binding to DNA, relative",[7],"more effective binding to DNA at all concentrations than cis-mono-4NI; neither bound as well, however, as cis-DDP"
"N.O=[N+]([O-])c1ccc2ncccc2c1.[Cl][Pt][Cl] [mono-6NQ, [PtCl2 (NH3)(6-nitroquinoline)]",toxicity compared with 6NQ alone,[1]; FIG. 5,much higher toxicity than 6NQ alone
same,plating efficiency,"[1]; after an hour, 60 min",0
"N.Nc1ncc([N+](=O)[O-])s1.[Cl][Pt][Cl] [mono-ANT, PtCl2 (ammine)(2-amino-5-nitrothiazole)]",approximate order of hypoxic toxicity of platinum complexes,[1],cis-DDP ff trans-mono-MISO f monoammine Z cis-mono-MISO f trans-DDP f mono-METRO Z mono-NI f mono-ANT
same,enhancement ratio (ER),[2]; [10],1.15
same,inhibition of cleavage with BamHI,[7]; 320 (unit uncertain),At least 10%
Cc1ncc([N+](=O)[O-])n1CCO.N.[Cl][Pt][Cl] [mono-METRO],approximate order of hypoxic toxicity of platinum complexes,[1],cis-DDP ff trans-mono-MISO f monoammine Z cis-mono-MISO f trans-DDP f mono-METRO Z mono-NI f mono-ANT
same,"radiosensitization, relative effectiveness",[2],approximately equal to mono-ANT
same,inhibition of cleavage with BamHI,[7]; approximately 50 mM,At least 10%
"COCC(O)Cn1cc[n+]([Pt-2]([NH3+])([Cl])[Cl])c1[N+](=O)[O-] (centres unmarked) [mono-MISO, PtCl2 (NH3) (misonidazole)]",potentiation by hydralazine,"[8]; hydralazine 5 mg/kg, FIG. 4",potentiating effects of hydralazine on this compound
same,dose reduction to achieve equitoxic doses when hydralazine is coadministered,[8]; with hydralazine,4 ×
same,drop in cell survival with combined therapy,"[8]; with hydralazine, mono-MISO 10 to 300 mg/kg, FIG. 4",approx. 3 logs
same,"radiosensitization, relative effectiveness",[2],somewhat more effective than mono-NI
same,inhibition of cleavage with BamHI,[7]; approximately 50 mM,At least 10%
"N.[Cl][Pt-]([Cl])[Cl].[K+] [monoammine, K[PtCl3 (NH3)]]",Survival rate,[1]; 100 mM/dm^3,0.1
same,toxicity compared with the compounds of the invention,[1],somewhat more toxic than the compounds of the invention
same,approximate order of hypoxic toxicity of platinum complexes,[1],cis-DDP ff trans-mono-MISO f monoammine Z cis-mono-MISO f trans-DDP f mono-METRO Z mono-NI f mono-ANT
same,ER,[2]; 100 mmol/dm^3,1.2
same,inhibition of BamHI cleavage,[7]; 160 mM (level not reached until this concentration),30%
same,binding to DNA as indicated by enzyme inhibition,[7]; 1 hr at 37° C.,showed binding to the DNA as indicated by enzyme inhibition
"N.N.[Cl][Pt+2][Cl] [trans-DDP, transdichlorodiamine platinum II]",Survival rate,[1]; 100 mM/dm^3,0.2
same,toxicity compared with the compounds of the invention,[1],somewhat less toxic
same,approximate order of hypoxic toxicity of platinum complexes,[1],cis-DDP ff trans-mono-MISO f monoammine Z cis-mono-MISO f trans-DDP f mono-METRO Z mono-NI f mono-ANT
same,IC50,[5],22 mM
same,ER,[2]; 100 mmol/dm^3,1.3
same,platinum bound to the extracted DNA,[9],5 ng Pt/10^6 cells
same,IC50,"[6]; L1210, cDDP resistant line, read-out: ID50 (the source's name)",66 mM
same,Ratio (ID50 cDDP resistant/cDDP sensitive),[6],3
"COCC(O)Cn1cc[n+]([Pt-2]([Cl])([Cl])[n+]2ccn(CC(O)COC)c2[N+](=O)[O-])c1[N+](=O)[O-] (stereo not drawn) [trans-bis-MISO, trans-[PtCl2 (miso)2]]",toxicity,[1]; 100 mM/dm^3,no toxicity
same,toxicity compared with the compounds of the invention,[1],somewhat less toxic
same,ER,[2]; 100 mmol/dm^3,1.2
same,sensitization in oxygen,[2],no sensitization
